Reference: publication PMC5374206, “Anti-bacterial and Anti-biofilm Evaluation of Thiazolopyrimidinone Derivatives Targeting the Histidine Kinase YycG Protein of Staphylococcus epidermidis” (Frontiers in Microbiology, 2017)
Values after ≈ are worked out from the molar mass of the structure shown.

How the values were obtained:
[1] = tested on: S. epidermidis ATCC 35984; test: MIC and MBC tube-dilution assay; assay type: cell-based; conditions: Staphylococcus epidermidis; for MBC: ATCC35984, 99.9% reduction of inoculum; for MIC: ATCC35984, MHB, 16–20 h
Procedure: (§1) The MIC assays of the derivatives of compound 5 against S. epidermidis, S. aureus, MRSA and E. coli were performed by using the methods described previously by Wiegand et al. ([2008]). In brief, two-fold serial dilutions of the derivatives were prepared in tubes containing 4 mL MHB medium, yielding final concentrations from 200 to 0.78 μM. Bacterial cultures were grown overnight and adjusted so that the bacterial suspension turbidity was equivalent to a 0.5 McFarland standard (~1 × 10^8 CFU/mL) and further diluted to 1:200 into MHB medium. The contents in the tubes were mixed thoroughly and incubated at 37°C with shaking at 220 rpm for 16–20 h. The MIC endpoint was defined as the lowest concentration at which there was no visible growth in the tubes. The MBC values were assessed by plating 100 μL samples from each negative (no visible bacterial growth) culture tube from the MIC assays onto blank MHB agar plates. After incubation at 37°C for 24 h, the bacterial colonies on the plates were counted. The MBC was the concentration at which a 99.9% reduction of the original inoculum was observed (Pridmore et al., [2011]). In this assay, all the experiments were performed three times.

[2] = tested on: S. epidermidis ATCC 12228; test: MIC tube-dilution assay; assay type: cell-based; conditions: Staphylococcus epidermidis, ATCC12228
Procedure: as §1

S. aureus ATCC 49230 = test: MIC tube-dilution assay; assay type: cell-based; conditions: Staphylococcus aureus, ATCC49230
Procedure: as §1

[3] = Erythrocyte hemolysis assay; assay type: cell-based; conditions: human, erythrocytes (5% suspension), 37°C; for hemolysis at 1 h, 200 µM: at 200 μM; for hemolysis at 1 h: at MIC (against S epidermidis ATCC 35984)
Procedure: Hemolytic activities of the derivatives were measured on healthy human erythrocytes. A pure suspension of erythrocytes was obtained by washing a blood sample with sterile 0.9% NaCl saline solution. Erythrocytes were resuspended in normal saline to give a 5% solution, then treated with MIC, 4 × MIC or 200 μM of the derivatives for 1 h at 37°C in 96-well microtiter plates. After the incubation and centrifugation at 1,000 g for 10 min, supernatants were transferred to another sterile plate and the absorbance at 570 nm was measured on a spectrophotometric microplate reader. A positive control (100% hemolysis) and a negative control (0% hemolysis) were achieved by incubating with 1% Triton-X 100 and 0.1% DMSO, respectively. Each assay was performed in triplicate and repeated three times.

Cytotoxicity MTT assay = assay type: cell-based; conditions: African green monkey, Vero cells, highest concentration tested 200 μM
Procedure: A Cell Proliferation Kit I (MTT; Roche, Indianapolis, USA) was used to detect the cytotoxicity of the derivatives against Vero cells. Vero cells were added to 96-well microtiter plates at a concentration of 5 × 10^4 cells/well in 100 μL of culture medium. After 24 h, culture medium was replaced by 100 μL serial dilutions of the derivatives (0.78–100 μM) and the cells were incubated for 4 h in an atmosphere of 5% CO2, then 10 μL of the MTT stock solution was added to each well and the plate returned to the 37°C incubator for 4 h. Subsequent to the incubation, the purple formazan salts were dissolved in DMSO, and the absorbance of each well was measured at wavelengths of 595 nm (test) and 655 nm (reference). Cells treated with the solvent (0.1% DMSO) were used as a blank control. The concentration of the derivatives that produced a 50% cytotoxicity effect on Vero cells (CC50) was calculated using Origin v8.0 software (Origin Lab, Northampton, USA).

E. coli ATCC 25922 = test: MIC tube-dilution assay; assay type: cell-based, Escherichia coli; conditions: E. coli ATCC29522 (head), highest concentration used 200 μM
Procedure: as §1

YycG′ protein = molecular target: T1, YycG′ protein (Staphylococcus epidermidis, UniProt Q5HK19); test: Inhibition of YycG′ autophosphorylation (Kinase-Glo Luminescent Kinase Assay); assay type: biochemical; conditions: 4 μM ATP; for inhibition of the enzymatic activity of YycG′ protein: 100 μM derivative, 2 μg YycG′ protein; for IC50: Kinase-Glo, 2 μg YycG′, read-out: IC50 (inhibition of autophosphorylation of recombinant YycG′)
T1 construct: made in house; host or cells: E. coli BL21(DE3)
T1 sequence (Q5HK19 384-602 limits assumed): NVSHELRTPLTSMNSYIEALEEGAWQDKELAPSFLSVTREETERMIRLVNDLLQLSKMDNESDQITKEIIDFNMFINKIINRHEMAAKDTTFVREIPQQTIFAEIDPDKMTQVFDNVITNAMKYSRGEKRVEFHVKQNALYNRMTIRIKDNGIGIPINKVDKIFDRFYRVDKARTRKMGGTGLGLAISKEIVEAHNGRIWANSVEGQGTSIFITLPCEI
Procedure: The construction of the recombinant plasmid pET28a-YycG′ (containing the HATPase_c and HisKA domains of YycG) has been previously described (Liu et al., [2014]). After being used to transform E. coli strain BL21(DE3), this recombinant plasmid was induced to express YycG′ protein by 0.4 mM isopropyl-1-thio-β-D-galactopyranoside at 21°C for 12 h. Then, the bacterial cells were disrupted by sonication and centrifuged, the supernatant was purified by Ni–NTA agarose (Qiagen, Los Angeles, CA, USA). The inhibitory activities of the compound 5 derivatives on the ATPase activity of the YycG′ protein were measured using the Kinase-Glo™ Luminescent Kinase Assay (Promega, Madison, WI, USA). Briefly, 2 μg purified YycG′ protein was pre-incubated with a series of dilutions of the derivatives in reaction buffer [40 mM Tris (pH 7.5), 20 mM MgCl2 and 0.1 mg/ml BSA] at room temperature for 30 min, 4 μM ATP was added and incubated for 30 min at room temperature, then Kinase-Glo™ Reagent was added to detect the remaining amount of ATP, as reflected by luminescence intensity (RLU). In parallel, YycG′ protein with no addition of the derivatives was used as the control and ATP only was used as a blank. The rate of inhibition of protein phosphorylation (Rp) by the derivatives was calculated by the following equation: Rp = RLU(YycG^′+derivative+ATP+Kinase−Glo™)−RLU(YycG^′+ATP+Kinase−Glo™)/RLU(ATP+Kinase−Glo™)−RLU(YycG^′+ATP+Kinase−Glo™) × 100 IC50 (the concentration resulting in 50% inhibition of YycG′ protein autophosphorylation) was obtained by using Origin v7.0 software (OriginLab, Northampton, USA).

[4] = tested on: S. epidermidis ATCC 35984 mature biofilms; test: Cell viability in mature (24 h) biofilms by CLSM with Live/Dead staining; assay type: cell-based, Staphylococcus epidermidis; conditions: 4 × MIC, 16 h, 24 h mature biofilm; for PI fluorescence quantity (dead cells) / SYTO9 fluorescence quantity (viable cells): Image J
Procedure: The effect of the derivatives on cell viability in mature biofilms (24 h old) was determined using the Live/Dead Bacterial Viability method (Live/Dead BacLight, Molecular Probes, USA). […] The mature biofilms were stained with SYTO 9 and propidium iodide at room temperature for 15 min, following gentle washing of the dishes with normal saline, and were observed under a Leica TCS SP5 CLSM with a 63 × 1.4-NA oil-immersion objective. Further, image analysis was performed using IMARIS 7.0.0 software (Bitplane). The fluorescence quantities of biofilm were determined using Image J software. This assay was performed in triplicate and similar results were obtained.

[5] = tested on: S. epidermidis ATCC 35984; test: Time-kill assay against fast-growing S. epidermidis; assay type: cell-based, Staphylococcus epidermidis; conditions: 4 × MIC
Procedure: Suspensions of S. epidermidis (1 × 10^7 CFU/mL) were prepared and separately treated with the derivatives of compound 5 or vancomycin at concentrations of 4 × MIC in fresh MHB. Time-kill experiments were performed at 37°C with shaking at 220 rpm under aerobic conditions. Aliquots (1 mL) were removed from the culture medium at different time points (0, 1, 3, 5, 8, and 24 h), serially diluted and 100 μL of each of the dilutions plated out onto tryptic soy agar. After incubating at 37°C for 24 h, emergent bacterial colonies were counted, and the activity of the derivatives against fast-growing S. epidermidis cells was determined by plotting log10 colony counts (CFU/mL) against time. Bactericidal activity was defined as a 3-log10 decrease in CFU/mL. This assay was performed in triplicate and similar results were obtained.

[6] = tested on: S. epidermidis ATCC 35984 mature biofilms; parameters: method as in Liu et al., 2014; conditions: vancomycin 128 μg/mL; ref Liu et al., 2014; cited from earlier work
[7] = Escherichia coli, ATCC 25922 / ATCC 29522

SMILES | MIC [1] [µM] | MIC [2] [µM] | MIC (S. aureus ATCC 49230) [µM] | MIC (E. coli ATCC 25922; [7]) [µM] | inhibition of the enzymatic activity of YycG′ protein (YycG′ protein) [%] | IC50 (YycG′ protein) [µM] | MIC (E. coli ATCC 25922) [µM] | MBC [1] [µM] | hemolysis at 1 h, 200 µM [3] [%] | hemolysis at 1 h [3] [%] | CC50 at 4 h (Cytotoxicity MTT assay) [µM] | PI/Total (reduction of the proportion of viable cells in mature biofilms) [4] [%] | PI fluorescence quantity (dead cells) [4] | SYTO9 fluorescence quantity (viable cells) [4] | time required to achieve a bactericidal effect ([5]; bactericidal = 3-log10 decrease in CFU/mL) [h] | reduction in CFU/mL ([5]; within/after 1 h, inoculum ~1 × 10^7 CFU/mL, MHB) | reduction of living cells in mature biofilm [6] [%]
CCOC(=O)C1=C(c2ccccc2)N=c2s/c(=C\c3ccc(-c4cccc(C(=O)O)c4)o3)c(=O)n2C1c1ccc2c(c1)OCO2 (centres unmarked) [Compound 5, {5-benzo [1,3]dioxol-5-yl-2-[5-(3-carboxy-phenyl)-furan-2-ylmethylene]-3-oxo-7-phenyl-2,3-dihydro-5H-thiazolo [3,2-a]pyrimidine-6-carboxylic} acid ethyl ester] | 6.25 (≈ 3.88 µg/mL) | 6.25 (≈ 3.88 µg/mL) | 6.25 (≈ 3.88 µg/mL) | > 200 |  |  |  | 25 (≈ 15.5 µg/mL) | 0.51 ± 0.06 | 0.31 ± 0.16 | > 200 |  |  |  |  |  | 
CN[C@H](CC(C)C)C(=O)N[C@H]1C(=O)N[C@@H](CC(N)=O)C(=O)N[C@H]2C(=O)N[C@H]3C(=O)N[C@H](C(=O)N[C@H](C(=O)O)c4cc(O)cc(O)c4-c4cc3ccc4O)[C@H](O)c3ccc(c(Cl)c3)Oc3cc2cc(c3O[C@@H]2O[C@H](CO)[C@@H](O)[C@H](O)[C@H]2O[C@H]2C[C@](C)(N)[C@H](O)[C@H](C)O2)Oc2ccc(cc2Cl)[C@H]1O [vancomycin, reference compound] |  |  |  |  |  |  |  |  |  |  |  |  |  |  | > 5 | ~ 1 log | 11.4

More lines, main results first:

MIC [1] [µM] | MIC [2] [µM] | MIC (S. aureus ATCC 49230) [µM] | MIC (E. coli ATCC 25922; [7]) [µM] | inhibition of the enzymatic activity of YycG′ protein (YycG′ protein) [%] | IC50 (YycG′ protein) [µM] | MIC (E. coli ATCC 25922) [µM] | SMILES | MBC [1] [µM] | hemolysis at 1 h, 200 µM [3] [%] | hemolysis at 1 h [3] [%] | CC50 at 4 h (Cytotoxicity MTT assay) [µM] | PI/Total (reduction of the proportion of viable cells in mature biofilms) [4] [%] | PI fluorescence quantity (dead cells) [4] | SYTO9 fluorescence quantity (viable cells) [4] | time required to achieve a bactericidal effect ([5]; bactericidal = 3-log10 decrease in CFU/mL) [h] | reduction in CFU/mL ([5]; within/after 1 h, inoculum ~1 × 10^7 CFU/mL, MHB) | reduction of living cells in mature biofilm [6] [%]
1.56 (≈ 0.953 µg/mL) | 1.56 (≈ 0.953 µg/mL) | 1.56 (≈ 0.953 µg/mL) | > 200 | 64.78 | 77.2 | >200 | CCOC(=O)C1=C(c2ccccc2)N=c2sc(=Cc3ccc(-c4cccc(C(=O)O)c4)o3)c(=O)n2C1c1ccc(Cl)cc1 (centres unmarked) [H5-23, 2-{5-(3-carboxy-phenyl)-furan-2-ylmethylene]-5-(4-chloro-phenyl)-3-oxo-7-phenyl-2,3-di-hydro-5H-thiazolo[3,2-a]pyrimidine-6-carboxylic acid ethyl ester] | 25 (≈ 15.3 µg/mL) | 0.27 ± 0.01 | 0.27 ± 0.35 | > 200 | 85.7 | 61.928 ± 5.05 | 10.333 ± 4.39 |  |  | 
1.56 (≈ 0.834 µg/mL) | 1.56 (≈ 0.834 µg/mL) | 1.56 (≈ 0.834 µg/mL) | > 200 | 49.92 | 82.2 | >200 | COc1ccc(C2C=C(c3ccccc3)N=c3sc(=Cc4ccc(-c5cccc(C(=O)O)c5)o4)c(=O)n32)cc1 (centres unmarked) [H5-24, 3-{5-[5-(4-methoxy-phenyl)-3-oxo-7-phenyl-5H-thiazolo[3,2-a]pyrimidin-2-ylidenemethyl]-furan-2-yl}-benzoic acid] | 50 (≈ 26.7 µg/mL) | 0.32 ± 0.05 | 0.17 ± 0.11 | > 200 | 77.5 | 43.242 ± 5.65 | 12.554 ± 4.23 |  |  | 
1.56 (≈ 0.841 µg/mL) | 1.56 (≈ 0.841 µg/mL) | 1.56 (≈ 0.841 µg/mL) | > 200 | 51.42 | 80.2 | >200 | O=C(O)c1cccc(-c2ccc(C=c3sc4n(c3=O)C(c3ccc(Cl)cc3)C=C(c3ccccc3)N=4)o2)c1 (centres unmarked) [H5-25, 3-{5-[5-(4-chloro-phenyl)-3-oxo-7-phenyl-5H-thiazolo [3,2-a]pyrimidin-2-ylidenemethyl]-furan-2-yl}-benzoic acid] | 50 (≈ 27 µg/mL) | 0.39 ± 0.09 | 0.27 ± 0.01 | > 200 | 43.80 | 47.687 ± 4.77 | 61.188 ± 5.49 |  |  | 
